Measurements as given in the NIST ThermoML archive (doi:10.1016/j.fluid.2007.07.066).

Test: mn = molality of the nth substance listed, in mol/kg
Conditions: 101 kPa, Liquid; for speed of sound: Sing-around technique in a fixed-path interferometer; for molar conductivity: dip type immersion conductance cell

O=P([O-])([O-])O.[Na+].[Na+] [disodium hydrogen phosphate] + O
Conditions	mass density [kg/m3]	molar conductivity [S·m2/mol]	speed of sound [m/s]
283.15 K, m1 = 0.007	1000.71	–	1449.3
283.15 K, m1 = 0.0104	1001.19	–	1450
283.15 K, m1 = 0.0141	1001.72	–	1450.8
283.15 K, m1 = 0.032	1004.23	–	1454.2
283.15 K, m1 = 0.0386	1005.14	–	1455.5
283.15 K, m1 = 0.0411	1005.5	–	1456
283.15 K, m1 = 0.0496	1006.7	–	1457.7
283.15 K, m1 = 0.0632	1008.57	–	1460.3
283.15 K, m1 = 0.0737	1010.03	–	1462.3
283.15 K, m1 = 0.1066	1014.53	–	1468.4
283.15 K, m1 = 0.181	1024.58	–	1481.8
283.15 K, m1 = 0.2454	1033.1	–	1493.2
283.15 K, m1 = 0.2498	1033.68	–	1493.8
283.15 K, m1 = 0.2939	1039.48	–	1501.6
283.15 K, m1 = 0.3192	1042.77	–	1506
283.15 K, m1 = 0.3723	1049.55	–	1514.9
283.15 K, m1 = 0.4483	1059.19	–	1527.7
283.15 K, m1 = 0.6185	1080.36	–	1555.7
283.15 K, m1 = 0.7841	1100.26	–	1582.3
288.15 K, m1 = 0.007	1000.1	–	1467.6
288.15 K, m1 = 0.0104	1000.57	–	1468.3
288.15 K, m1 = 0.0141	1001.09	–	1469
288.15 K, m1 = 0.032	1003.56	–	1472.3
288.15 K, m1 = 0.0386	1004.46	–	1473.6
288.15 K, m1 = 0.0411	1004.81	–	1474.1
288.15 K, m1 = 0.0496	1006	–	1475.7
288.15 K, m1 = 0.0632	1007.85	–	1478.2
288.15 K, m1 = 0.0737	1009.28	–	1480.1
288.15 K, m1 = 0.1066	1013.73	–	1486
288.15 K, m1 = 0.181	1023.64	–	1499.1
288.15 K, m1 = 0.2454	1032.07	–	1510.1
288.15 K, m1 = 0.2498	1032.64	–	1510.8
288.15 K, m1 = 0.2939	1038.38	–	1518.3
288.15 K, m1 = 0.3192	1041.64	–	1522.6
288.15 K, m1 = 0.3723	1048.34	–	1531.2
288.15 K, m1 = 0.4483	1057.89	–	1543.6
288.15 K, m1 = 0.6185	1078.87	–	1570.8
288.15 K, m1 = 0.7841	1098.62	–	1596.7
293.15 K, m1 = 0.007	999.185	–	1483.8
293.15 K, m1 = 0.0104	999.653	–	1484.5
293.15 K, m1 = 0.0141	1000.17	–	1485.2
293.15 K, m1 = 0.032	1002.61	–	1488.4
293.15 K, m1 = 0.0386	1003.49	–	1489.6
293.15 K, m1 = 0.0411	1003.85	–	1490.1
293.15 K, m1 = 0.0496	1005.01	–	1491.7
293.15 K, m1 = 0.0632	1006.84	–	1494.1
293.15 K, m1 = 0.0737	1008.26	–	1495.9
293.15 K, m1 = 0.1066	1012.65	–	1501.7
293.15 K, m1 = 0.181	1022.47	–	1514.3
293.15 K, m1 = 0.2454	1030.81	–	1525
293.15 K, m1 = 0.2498	1031.37	–	1525.7
293.15 K, m1 = 0.2939	1037.06	–	1533
293.15 K, m1 = 0.3192	1040.28	–	1537.1
293.15 K, m1 = 0.3723	1046.93	–	1545.5
293.15 K, m1 = 0.4483	1056.39	–	1557.6
293.15 K, m1 = 0.6185	1077.21	–	1584
293.15 K, m1 = 0.7841	1096.81	–	1609.1
298.15 K, m1 = 0.0049	–	0.01921	–
298.15 K, m1 = 0.007	998.012	–	1498
298.15 K, m1 = 0.0104	998.476	0.01802	1498.7
298.15 K, m1 = 0.0141	998.988	–	1499.3
298.15 K, m1 = 0.0154	–	0.01735	–
298.15 K, m1 = 0.0211	–	0.0167	–
298.15 K, m1 = 0.032	1001.4	–	1502.5
298.15 K, m1 = 0.0386	1002.28	–	1503.7
298.15 K, m1 = 0.0411	1002.63	–	1504.1
298.15 K, m1 = 0.0413	–	0.01534	–
298.15 K, m1 = 0.0496	1003.78	–	1505.6
298.15 K, m1 = 0.0632	1005.6	–	1508
298.15 K, m1 = 0.0712	–	0.014	–
298.15 K, m1 = 0.0737	1007	–	1509.8
298.15 K, m1 = 0.1066	1011.35	0.01306	1515.3
298.15 K, m1 = 0.1437	–	0.01234	–
298.15 K, m1 = 0.181	1021.07	–	1527.7
298.15 K, m1 = 0.1927	–	0.0116	–
298.15 K, m1 = 0.2454	1029.34	–	1538
298.15 K, m1 = 0.2475	–	0.011	–
298.15 K, m1 = 0.2498	1029.9	–	1538.6
298.15 K, m1 = 0.2939	1035.53	–	1545.8
298.15 K, m1 = 0.3192	1038.73	–	1549.8
298.15 K, m1 = 0.3697	–	0.00986	–
298.15 K, m1 = 0.3723	1045.32	–	1558
298.15 K, m1 = 0.4438	–	0.009224	–
298.15 K, m1 = 0.4483	1054.71	–	1569.7
298.15 K, m1 = 0.5295	–	0.008621	–
298.15 K, m1 = 0.6125	–	0.00816	–
298.15 K, m1 = 0.6185	1075.38	–	1595.4
298.15 K, m1 = 0.6768	–	0.00778	–
298.15 K, m1 = 0.7479	–	0.007445	–
298.15 K, m1 = 0.7841	1094.86	–	1619.8
298.15 K, m1 = 0.8346	–	0.00706	–
298.15 K, m1 = 0.9695	–	0.006536	–
303.15 K, m1 = 0.007	996.606	–	1510.4
303.15 K, m1 = 0.0104	997.065	–	1511
303.15 K, m1 = 0.0141	997.573	–	1511.7
303.15 K, m1 = 0.032	999.963	–	1514.7
303.15 K, m1 = 0.0386	1000.84	–	1515.9
303.15 K, m1 = 0.0411	1001.18	–	1516.3
303.15 K, m1 = 0.0496	1002.33	–	1517.8
303.15 K, m1 = 0.0632	1004.12	–	1520.1
303.15 K, m1 = 0.0737	1005.51	–	1521.8
303.15 K, m1 = 0.1066	1009.83	–	1527.2
303.15 K, m1 = 0.181	1019.47	–	1539.2
303.15 K, m1 = 0.2454	1027.67	–	1549.2
303.15 K, m1 = 0.2498	1028.22	–	1549.9
303.15 K, m1 = 0.2939	1033.82	–	1556.8
303.15 K, m1 = 0.3192	1036.99	–	1560.7
303.15 K, m1 = 0.3723	1043.54	–	1568.7
303.15 K, m1 = 0.4483	1052.87	–	1580.1
303.15 K, m1 = 0.6185	1073.41	–	1605.1
303.15 K, m1 = 0.7841	1092.78	–	1628.8
